Data: US20250213563A1, “SUBSTITUTED PYRIMIDIN-4(3H)-ONES FOR USE IN TREATING CANCER” (NAVIRE PHARMA, INC., priority 2021, published 2025)
Like-named read-outs stand apart in the source and are kept apart here.

Assays:
[1] = Single-dose pharmacokinetics, Cynomolgus monkey; assay type: in vivo, male); conditions: free base; for AUC(0-t): read-out: AUC0→24
Description: (§1) The pharmacokinetic (PK) parameters of Compound (10b) (freebase) were determined following single intravenous (IV) and oral (PO) administration in female CD-1 mouse, female C57BL/6 mouse (PO only), male Sprague Dawley rat, male Beagle dog, and male Cynomolgus monkey. Additional evaluation of the PK properties of Compound (10b) was obtained following single dose PO administration in female CD-1 mouse, male Sprague Dawley rat and male Beagle dog over a dose range spanning 10 to 300 mg/kg (mouse and rat) and 1 to 100 mg/kg (dog). The intravenous dose solutions were prepared in 20% DMSO-60% PEG400-20% water and the oral dose solutions as suspensions in 0.5% methylcellulose in water, unless otherwise noted. Plasma concentration profiles were generated from serial sampling in individual animals up to 24 hours post dose, except for the studies in mice where composite sampling methods were used (i.e. 3 sampling times per mouse; 9 mice per group). […] Exposures increased with increasing dose level across species, in a dose-proportional manner in mouse and dog, and in a greater than dose-proportional manner in rat (80× increase in AUC with a 30× increase in dosage).

[2] = tested on: HCC827 cell line-derived xenograft (CDX) model; assay: Monotherapy anti-tumor activity, HCC827 CDX model; assay type: in vivo; conditions: for tumor growth inhibition (TGI): day 1 to day 28
Description: An in vivo efficacy study was conducted to evaluate the monotherapy anti-tumor activity of Compound (10b) in female BALB/c nude mice bearing the non-small cell lung cancer (NSCLC) HCC827 cell line-derived xenograft (CDX) model, which harbors an EGFR exon 19 deletion (EGFR^ex19del) and EGFR amplification (EGFRamp). Mice (n=10 per group) were dosed daily orally with the indicated levels of Compound (10b) from day 1 to day 28, and a dose dependent reduction in tumor volume was observed. […] All groups dosed QD, PO Two-way mixed-effects ANOVA: *p<0.0001 vs vehicle.
(§2) In vivo efficacy studies were conducted to evaluate the monotherapy anti-tumor activity of Compound (10b) across a panel of cell line-derived xenograft (CDX) models. […] Significant anti-tumor efficacy was also observed in two CDX models with acquired resistance to EGFR inhibitors.

[3] = tested on: panel of 73 receptors and ion channels and 12 additional enzymes; assay: Eurofins Cerep off-target panel; conditions: 10 μM
Description: In addition to the kinase and phosphatase screens, Compound (10b) (10 μM) was tested against a panel of 73 receptors and ion channels and 12 additional enzymes using the Eurofins Cerep platform. In this screen, inhibition or stimulation of >50% is considered to be a significant effect.

[4] = target: T1, Protein kinase C eta (PRKCH) (Homo sapiens, UniProt P24723); assay: KINOMEscan competition binding; conditions: read-out: ligand binding, % control
T1 construct: purchased DiscoverX (KINOMEscan platform)
Description: (§3) Activity of Compound (10b) (1 μM) was assessed against a panel of 419 human kinases (including a set of disease-relevant mutant variants). Assays were conducted using the KINOMEscan™ platform from DiscoverX which measures compound interaction with kinases using active site-directed competition binding assays. Displacement of ligand binding to the kinase by <35% of the control value is considered significant. Of the 419 kinases tested, only 4 kinases reached this level of displacement: Protein kinase C eta (PRKCH), 34% control; Large tumor suppressor kinase 1 (LATS1), 32% control; General control nonderepressible 2 kinase (GCN2), 21% control; and Hematopoietic Progenitor Kinase 1 (HPK1), 4.4% control.

[5] = target: T2, Large tumor suppressor kinase 1 (LATS1) (Homo sapiens, UniProt O95835); assay: KINOMEscan competition binding; conditions: read-out: ligand binding, % control
T2 construct: purchased DiscoverX (KINOMEscan platform)
Description: as §3

[6] = Monotherapy studies across panel of CDX models, tolerability; assay type: in vivo, immunocompromised mice; conditions: 100 mg/kg daily orally, 21 to 33 days, all CDX models
Description: as §2

[7] = Single-dose pharmacokinetics, summary across species; assay type: in vivo; conditions: both sexes, CD-1, C57BL/6, Sprague Dawley, Beagle, mouse, rat, dog, monkey, plasma
Description: as §1

pERK in PBMC = assay: Phase 1/1B first-in-human study, PBMC pERK inhibition; assay type: in vivo
[8] = Single oral dose exposure in NOD/SCID mice; assay type: in vivo; conditions: male, mouse; for Kp at 24 h: brain; for AUC(0-inf) / Cmax: plasma
Description: Male NOD/SCID mice (n=3 per group) were administered a single dose of Compound (10b) at 1, 3, 10, 30, and 100 mg/kg by oral gavage. Plasma was collected at 0.25, 1, 2, 4, 8, and 24 hours after each dose, and brains were collected at 24 hours after each dose. Compound (10b) concentrations were determined with LC-MS/MS.

[9] = male, cynomolgus monkey, plasma, IV 0.3 mg/kg
[10] = male, cynomolgus monkey, plasma, oral 1 mg/kg

T1 sequence (P24723 whole entry): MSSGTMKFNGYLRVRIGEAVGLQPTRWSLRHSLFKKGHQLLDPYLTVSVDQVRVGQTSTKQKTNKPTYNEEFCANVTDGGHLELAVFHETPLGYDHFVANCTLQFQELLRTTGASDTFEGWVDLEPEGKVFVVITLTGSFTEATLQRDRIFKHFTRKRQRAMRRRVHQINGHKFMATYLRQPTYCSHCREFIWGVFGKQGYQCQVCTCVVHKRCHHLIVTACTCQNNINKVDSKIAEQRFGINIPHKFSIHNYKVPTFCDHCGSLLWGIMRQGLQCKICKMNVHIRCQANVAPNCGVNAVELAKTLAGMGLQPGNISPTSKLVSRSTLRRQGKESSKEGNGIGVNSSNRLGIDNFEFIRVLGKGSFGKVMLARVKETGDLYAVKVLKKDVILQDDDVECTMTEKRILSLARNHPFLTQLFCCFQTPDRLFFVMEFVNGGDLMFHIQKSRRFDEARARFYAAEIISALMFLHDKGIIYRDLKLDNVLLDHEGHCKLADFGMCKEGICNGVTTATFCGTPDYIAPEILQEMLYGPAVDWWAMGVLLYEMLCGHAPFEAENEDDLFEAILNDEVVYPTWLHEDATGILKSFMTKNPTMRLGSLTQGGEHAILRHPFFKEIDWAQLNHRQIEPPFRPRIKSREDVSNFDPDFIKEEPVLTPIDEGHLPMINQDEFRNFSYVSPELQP
T2 sequence (O95835 whole entry): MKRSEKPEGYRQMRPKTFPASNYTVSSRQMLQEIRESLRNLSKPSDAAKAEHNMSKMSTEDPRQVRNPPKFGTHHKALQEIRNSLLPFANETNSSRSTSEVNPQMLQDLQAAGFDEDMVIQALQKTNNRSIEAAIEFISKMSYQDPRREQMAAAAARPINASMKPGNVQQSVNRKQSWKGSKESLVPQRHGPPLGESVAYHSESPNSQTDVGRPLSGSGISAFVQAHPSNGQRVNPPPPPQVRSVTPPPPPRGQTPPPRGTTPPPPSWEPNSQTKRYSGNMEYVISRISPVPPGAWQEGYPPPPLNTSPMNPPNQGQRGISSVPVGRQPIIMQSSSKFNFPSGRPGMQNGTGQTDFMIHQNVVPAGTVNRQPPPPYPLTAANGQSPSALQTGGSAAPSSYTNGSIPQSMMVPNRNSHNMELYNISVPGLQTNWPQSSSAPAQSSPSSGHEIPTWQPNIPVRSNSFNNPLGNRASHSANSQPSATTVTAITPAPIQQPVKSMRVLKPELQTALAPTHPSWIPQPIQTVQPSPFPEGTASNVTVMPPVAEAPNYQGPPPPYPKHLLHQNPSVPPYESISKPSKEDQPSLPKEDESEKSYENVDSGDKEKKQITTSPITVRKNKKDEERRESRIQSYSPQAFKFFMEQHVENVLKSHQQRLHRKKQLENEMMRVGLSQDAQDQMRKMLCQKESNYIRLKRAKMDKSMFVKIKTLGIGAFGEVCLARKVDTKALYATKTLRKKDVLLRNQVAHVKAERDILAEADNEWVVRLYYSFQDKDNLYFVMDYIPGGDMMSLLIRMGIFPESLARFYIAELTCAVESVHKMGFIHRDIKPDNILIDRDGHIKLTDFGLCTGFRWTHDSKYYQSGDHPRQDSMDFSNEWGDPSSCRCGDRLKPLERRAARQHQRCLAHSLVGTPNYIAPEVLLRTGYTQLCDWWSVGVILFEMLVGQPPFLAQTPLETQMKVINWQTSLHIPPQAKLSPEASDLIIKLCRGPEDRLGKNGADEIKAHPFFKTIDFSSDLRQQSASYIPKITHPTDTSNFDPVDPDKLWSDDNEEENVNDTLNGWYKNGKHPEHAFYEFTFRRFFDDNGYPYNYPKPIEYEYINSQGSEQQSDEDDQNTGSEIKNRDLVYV

## Cc1c(N2CCC3(CC2)CO[C@@H](C)[C@H]3N)nc(C)n(-c2cccc(Cl)c2Cl)c1=O (atropisomer, axis not shown; (Ra)) [Compound (10b), 6-((3S,4S)-4-amino-3-methyl-2-oxa-8-azaspiro[4.5]decan-8-yl)-3-(Ra)-(2,3-dichlorophenyl)-2,5-dimethylpyrimidin-4(3H)-one]
[1]; [9]
  half-life: 6.44 h
  AUC(0-t): 1.82 µM·h
[1]; male, cynomolgus monkey, plasma, IV 0.3 mg/kg, read-out: Clp (converted)
  clearance: 6 mL/min/kg
[1]; male, cynomolgus monkey, plasma, IV 0.3 mg/kg, read-out: Vdss
  Vd: 2.74 L/kg
[1]; [10]
  Cmax: 430 nM
  Tmax: 2.67 h
  AUC(0-t): 4.52 µM·h
[1]; oral 1 mg/kg
  F: 52.3%
[2]; 3 mg/kg QD PO
  tumor growth inhibition (TGI): 41%
[2]; 10 mg/kg QD PO
  tumor growth inhibition (TGI): 84%
[2]; 30 mg/kg QD PO
  tumor growth inhibition (TGI): 98%
[2]; 100 mg/kg QD PO
  mean tumor regression: 60%
[2]; 3-100 mg/kg QD PO
  impact of treatment on body weight: no impact
  tolerability: well tolerated
[2]; QD PO
  ED90: 10 mg/kg
[3]
  inhibition or stimulation of >50%: No effects of this magnitude were observed
[4]
  remaining ligand binding at 1 µM: 34%
[5]
  remaining binding at 1 µM: 32%
[6]
  impact of treatment on body weight: no impact
  tolerability: well tolerated
[7]; oral 1-100 mg/kg
  Tmax: 0.25 to 3.67 h
[7]; oral doses 3- to 30-fold higher than intravenous doses, read-out: apparent oral bioavailabilities
  bioavailability: 51.2 to 115%
pERK in PBMC; Homo sapiens, PBMC, 550 mg dose level, 24 h post dose
  inhibition at 550 mg: 90%
pERK in PBMC; cohort 5 (550 mg), 4 hours post dose
  PBMC pERK inhibition: ~95%
[8]; oral, mean over doses 1-100 mg/kg, read-out: mean total brain/plasma level at 24 hours
  Kp at 24 h: 0.33
[8]; single oral dose 1 mg/kg, read-out: total brain/plasma levels at 24 hours
  Kp at 24 h: 0.35
[8]; single oral dose 3 mg/kg, read-out: total brain/plasma levels at 24 hours
  Kp at 24 h: 0.31
[8]; single oral dose 10 mg/kg, read-out: total brain/plasma levels at 24 hours
  Kp at 24 h: 0.3
[8]; single oral dose 30 mg/kg, read-out: total brain/plasma levels at 24 hours
  Kp at 24 h: 0.31
[8]; single oral dose 100 mg/kg, read-out: total brain/plasma levels at 24 hours
  Kp at 24 h: 0.37
[8]; single oral dose 1 mg/kg
  AUC(0-inf): 1030 ng·h/mL
  Cmax: 160 ng/mL
[8]; single oral dose 3 mg/kg
  AUC(0-inf): 3530 ng·h/mL
  Cmax: 507 ng/mL
[8]; single oral dose 10 mg/kg
  AUC(0-inf): 13000 ng·h/mL
  Cmax: 2030 ng/mL
[8]; single oral dose 30 mg/kg
  AUC(0-inf): 30600 ng·h/mL
  Cmax: 4870 ng/mL
[8]; single oral dose 100 mg/kg
  AUC(0-inf): 123000 ng·h/mL
  Cmax: 13900 ng/mL
